{
  "source": "patent US20190071490A1",
  "about": "“Preventing Post-Ictal Headaches” (Beth Israel Deaconess Medical Center, Inc., priority 2017, published 2019)",
  "system": "skin blood flow after saphenous nerve stimulation (CGRP release)",
  "assay": "Skin vasodilatation induced by stimulation of rat saphenous nerve",
  "assay_type": "in vivo",
  "conditions": "400 nmol/kg i.v., 3-5 minutes before stimulation, vs control",
  "method": "To test antagonist activity of anti-CGRP antibodies, effect of the antibodies on skin vasodilatation by stimulation of rat saphenous nerve was tested using a rat model described previously. Escott et al., Br. J. Pharmacol. 110:772-776, 1993. In this rat model, electrical stimulation of saphenous nerve induces release of CGRP from nerve endings, resulting in an increase in skin blood flow. Blood flow in the foot skin of male Sprague Dawley rats (170-300 g, from Charles River Hollister) was measured after saphenous nerve stimulation. Rats were maintained under anesthesia with 2% isoflurane. Bretylium tosylate (30 mg/kg, administered i.v.) was given at the beginning of the experiment to minimize vasoconstriction due to the concomitant stimulation of sympathetic fibers of the saphenous nerve. […]\nFor experiments shown in FIGS. 2A and 2B, antibody 4901 (25 mg/kg), antibody 7D11 (25 mg/kg), or vehicle control (PBS with 0.01% Tween 20) was administered intraperitoneally (IP) 72 hours before the electrical pulse stimulation. […] Skin blood flow, measured as blood cell flux, was monitored with a laser Doppler flow meter. […]\nFor experiments shown in FIGS. 4A and 4B, saphenous nerve was exposed surgically before antibody administration. […] Skin blood flow, measured as blood cell flux, was monitored with a laser Doppler flow meter. […]",
  "data": [
    {"substance": "CGRP 8-37: Positive control compound CGRP 8-37 (vasodilatation antagonist)", "values": [
      {"measurement": "blood flow increase stimulated by electronic pulses on saphenous nerve (AUC of blood cell flux)", "result": "inhibited"}
    ]}
  ]
}
